Several values for one entry are separate records, joined by “and”; a condition that tells them apart may be missing. Equal values may be shown once.
target: T1, Cdk9/cyclinT1 (Homo sapiens, UniProt P50750); assay: Cdk9/cyclinT1 IMAP protocol (fluorescence polarization); settings: IC-50, CDK9; lower limit of assay 0.0005 micromolar
T1 sequence (P50750 whole entry): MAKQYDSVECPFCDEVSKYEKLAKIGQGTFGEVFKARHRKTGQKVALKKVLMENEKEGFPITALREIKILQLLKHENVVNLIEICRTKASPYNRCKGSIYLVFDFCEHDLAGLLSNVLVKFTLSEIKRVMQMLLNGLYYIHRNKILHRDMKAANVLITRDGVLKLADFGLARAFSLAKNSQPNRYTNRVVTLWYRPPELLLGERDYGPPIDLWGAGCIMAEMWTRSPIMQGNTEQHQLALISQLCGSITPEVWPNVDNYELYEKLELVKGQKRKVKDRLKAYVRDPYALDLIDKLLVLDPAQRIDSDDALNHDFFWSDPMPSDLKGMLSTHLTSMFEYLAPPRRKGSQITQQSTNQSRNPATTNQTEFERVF
T1 sequence (O60563 whole entry partner): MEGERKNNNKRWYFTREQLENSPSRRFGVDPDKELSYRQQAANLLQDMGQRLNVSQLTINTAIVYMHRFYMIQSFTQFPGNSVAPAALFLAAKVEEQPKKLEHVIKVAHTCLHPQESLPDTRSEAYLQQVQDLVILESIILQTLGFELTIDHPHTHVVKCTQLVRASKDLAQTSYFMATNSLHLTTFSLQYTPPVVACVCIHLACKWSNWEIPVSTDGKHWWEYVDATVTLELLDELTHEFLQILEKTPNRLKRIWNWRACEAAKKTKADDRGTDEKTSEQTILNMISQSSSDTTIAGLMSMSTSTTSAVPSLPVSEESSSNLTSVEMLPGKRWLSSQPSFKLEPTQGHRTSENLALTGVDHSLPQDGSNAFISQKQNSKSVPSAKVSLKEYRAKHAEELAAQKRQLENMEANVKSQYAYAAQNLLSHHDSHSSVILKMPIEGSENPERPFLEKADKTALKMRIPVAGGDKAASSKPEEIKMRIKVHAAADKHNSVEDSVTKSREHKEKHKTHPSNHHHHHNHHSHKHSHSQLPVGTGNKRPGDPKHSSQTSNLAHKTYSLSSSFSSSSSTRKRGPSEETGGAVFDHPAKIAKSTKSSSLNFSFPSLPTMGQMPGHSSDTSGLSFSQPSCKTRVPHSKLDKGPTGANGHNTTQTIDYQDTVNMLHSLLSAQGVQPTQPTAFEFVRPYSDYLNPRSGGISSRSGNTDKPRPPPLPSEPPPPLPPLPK

IC50 [nM] | SMILES
< 0.5 | COC[C@@H](C)N[C@H]1CC[C@H](Nc2cc(-c3cccc(NCC4(C#N)CC4)n3)c(F)cn2)CC1 [Compound 480, 1-(((5′-fluoro-2′-((trans-4-(((R)-1-methoxypropan-2-yl)amino)cyclohexyl)amino)-[2,4′-bipyridin]-6-yl)amino)methyl)cyclopropane-carbonitrile]
2.1 | COC[C@@H](C)N[C@H]1CC[C@H](Nc2cc(-c3cccc(NCCC#N)n3)c(Cl)cn2)CC1 [Compound 445, 3-((5′-chloro-2′-((trans-4-(((R)-1-methoxypropan-2-yl)amino)cyclohexyl)amino)-[2,4′-bipyridin]-6-yl)amino)propanenitrile]
8.2 | C[C@@H]1CN([C@H]2CC[C@@H](Nc3cc(-c4cccc(NCC5(C#N)CCOCC5)n4)c(Cl)cn3)CC2)C[C@H](C)O1 [Compound 427, 4-(((5′-chloro-2′-((cis-4-((2S,6R)-2,6-dimethylmorpholino)cyclohexyl)amino)-[2,4′-bipyridin]-6-yl)amino)methyl)tetrahydro-2H-pyran-4-carbonitrile]
< 0.5 | N#CC1(CNc2cccc(-c3cc(N[C@H]4CC[C@H](NCC5CCCO5)CC4)ncc3Cl)n2)CCOCC1 (stereo partly drawn) [Compound 468, 4-(((5′-chloro-2′-((trans-4-(((tetrahydrofuran-2-yl)methyl)amino)cyclohexyl)amino)-[2,4′-bipyridin]-6-yl)amino)methyl)tetrahydro-2H-pyran-4-carbonitrile]
0.6 | CN(C)C(=O)NC[C@H]1CC[C@H](Nc2cc(-c3cccc(NCC4(C#N)CCOCC4)n3)c(Cl)cn2)CC1 [Compound 499, 3-((trans-4-((5′-chloro-6-(((4-cyanotetrahydro-2H-pyran-4-yl)methyl)amino)-[2,4′-bipyridin]-2′-yl)amino)cyclohexyl)methyl)-1,1-dimethylurea]
20 | N#CC1(CNc2cccc(-c3cc(N[C@@H]4CCCc5ccccc54)ncc3Cl)n2)CCOCC1 [Compound 500, (R)-4-(((5′-chloro-2′-((1,2,3,4-tetrahydronaphthalen-1-yl)amino)-[2,4′-bipyridin]-6-yl)amino)methyl)tetrahydro-2H-pyran-4-carbonitrile]
< 0.5 | CS(=O)(=O)CCN[C@H]1CC[C@H](Nc2cc(-c3cccc(NCC4(C#N)CCOCC4)n3)c(Cl)cn2)CC1 [Compound 422, 4-(((5′-chloro-2′-((trans-4-((2-(methylsulfonyl)ethyl)amino)cyclohexyl)amino)-[2,4′-bipyridin]-6-yl)amino)methyl)tetrahydro-2H-pyran-4-carbonitrile]
< 0.5 | CC(C)S(=O)(=O)NC[C@H]1CC[C@H](Nc2cc(-c3cccc(NCC4(C#N)CCOCC4)n3)c(Cl)cn2)CC1 [Compound 495, N-((trans-4-((5′-chloro-6-(((4-cyanotetrahydro-2H-pyran-4-yl)methyl)amino)-[2,4′-bipyridin]-2′-yl)amino)cyclohexyl)methyl) propane-2-sulfonamide]
< 0.5 | N#CC1(CNc2cccc(-c3cc(N[C@H]4CC[C@H](N)CC4)ncc3F)n2)CCOCC1 [Compound 479, 4-(((2′-((trans-4-aminocyclohexyl)amino)-5′-fluoro-[2,4′-bipyridin]-6-yl)amino)methyl)tetrahydro-2H-pyran-4-carbonitrile]
1.2 | COC[C@H](C)N[C@H]1CC[C@H](Nc2cc(-c3ccc(F)c(NC[C@@H]4CCOC(C)(C)C4)n3)c(Cl)cn2)CC1 [Compound 462, 5′-chloro-N6-(((R)-2,2-dimethyltetrahydro-2H-pyran-4-yl)methyl)-5-fluoro-N2′-(trans-4-(((S)-1-methoxypropan-2-yl)amino)cyclohexyl)-[2,4′-bipyridine]-2′,6-diamine]
≤ 0.5 | COC[C@@H](C)N[C@H]1CC[C@H](Nc2cc(-c3nc(NCC4(C#N)CCOCC4)cnc3Cl)c(Cl)cn2)CC1 [Compound 506, 4-(((5-chloro-6-(5-chloro-2-((trans-4-(((R)-1-methoxypropan-2-yl)amino)cyclohexyl)amino)pyridin-4-yl)pyrazin-2-yl)amino)methyl)tetrahydro-2H-pyran-4-carbonitrile]
< 0.5 | N#CC1(CNc2cccc(-c3cc(N[C@H]4CC[C@@H](O)C4)ncc3Cl)n2)CCOCC1 (relative stereo) [Example 404]
< 0.5 | COCC(=O)NC[C@H]1CC[C@H](Nc2cc(-c3cccc(NCC4(C#N)CCOCC4)n3)c(Cl)cn2)CC1 [Compound 498, N-((trans-4-((5′-chloro-6-(((4-cyanotetrahydro-2H-pyran-4-yl)methyl)amino)-[2,4′-bipyridin]-2′-yl)amino)cyclohexyl)methyl)-2-methoxyacetamide]
≤ 0.5 | CO[C@@H]1C[C@@H](Nc2cc(-c3cccc(NCC4(C#N)CCOCC4)n3)c(Cl)cn2)CC[C@@H]1N (single isomer, unassigned) [Compound 435]

SMILES | IC50 [nM]
COC[C@@H](C)N[C@H]1CC[C@H](Nc2cc(-c3cccc(NCC4(C#N)CCOCC4)n3)c(F)cn2)CC1 [Compound 471, 4-(((5′-fluoro-2′-((trans-4-(((R)-1-methoxypropan-2-yl)amino)cyclohexyl)amino)-[2,4′-bipyridin]-6-yl)amino)methyl)tetrahydro-2H-pyran-4-carbonitrile] | < 0.5

target: T1, Cdk9/cyclinT1; assay: Cdk9/cyclinT1 Alpha Screen protocol; assay type: biochemical; parameters: Full length wild type Cdk9/cyclin T1 is purchased from Invitrogen; purchased Invitrogen PV4131; settings: TFA salt; individual determinations; read-out: CDK9_cyclinT1_AS2_IC50
Experimental: Cdk9/cyclinT1 Alpha Screen Protocol
Full length wild type Cdk9/cyclin T1 is purchased from Invitrogen, cat#PV4131. […] The cdk7tide peptide substrate, biotin-[…] -OH, is a custom synthesis purchased from the Tufts University Core Facility. The final concentration of cdk7tide peptide substrate is 200 nM. […] Phospho-Rpb1 CTD (ser2/5) substrate antibody is purchased from Cell Signaling Technology. The final concentration of antibody is 0.67 ug/ml. The Alpha Screen Protein A detection kit containing donor and acceptor beads is purchased from PerkinElmer Life Sciences. The final concentration of both donor and acceptor beads is 15 ug/ml. Alpha Screen is used for detection. […] The biotinylated-cdk7tide peptide substrate is bound to the streptavidin coated donor bead. The antibody is bound to the protein A coated acceptor bead. The antibody will bind to the phosphorylated form of the biotinylated-cdk7tide peptide substrate, bringing the donor and acceptor beads into close proximity. Laser irradiation of the donor bead at 680 nm generates a flow of short-lived singlet oxygen molecules. When the donor and acceptor beads are in close proximity, the reactive oxygen generated by the irradiation of the donor beads initiates a luminescence/fluorescence cascade in the acceptor beads. This process leads to a highly amplified signal with output in the 530-620 nm range. Assays are carried out in 50 mM Hepes, pH=7.5, 10 mM MgCl2, 0.1% Bovine Serum Albumin, 0.01% Tween-20, 1 mM Dithiothreitol, 2.5% Dimethyl Sulfoxide. Stop and detection steps are combined using 50 mM Hepes, pH=7.5, 18 mM EDTA, 0.1% Bovine Serum Albumin, 0.01% Tween-20.

IC50 | SMILES
19.8 nM and 20.9 nM | N#CC1(CNc2cccc(-c3cc(N[C@H]4CC[C@@H](N5CCCOCC5)CC4)ncc3Cl)n2)CCOCC1 [Compound 538]
0.229 nM | C[C@H](O)[C@@H](C)N[C@H]1CC[C@H](Nc2cc(-c3cccc(NCC4(C#N)CCOCC4)n3)c(Cl)cn2)CC1 [Compound 543]
1.87 nM | N#CC1(CNc2cccc(-c3cc(N[C@H]4CC[C@H](CN5CCOCC5)CC4)ncc3Cl)n2)CCOCC1 [Compound 536]
0.842 nM and 1.05 nM and 0.384 nM | COC[C@@H](C)N[C@H]1CC[C@H](Nc2cc(-c3cncc(OCC4(C#N)CCOCC4)n3)c(Cl)cn2)CC1 [Compound 552]
0.137 nM | N#CC1(CNc2cccc(-c3cc(N[C@H]4CC[C@H](O)CC4)ncc3F)n2)CCOCC1 [Compound 576]
0.497 nM and 0.311 nM | C[C@](O)(CN[C@H]1CC[C@H](Nc2cc(-c3cccc(NCC4(C#N)CCOCC4)n3)c(Cl)cn2)CC1)C(F)(F)F [Compound 578]
0.703 nM | COC[C@@H](C)NC[C@H]1CC[C@H](Nc2cc(-c3cccc(NCC4(C#N)CCOCC4)n3)c(Cl)cn2)CC1 [Compound 532]
2.19 nM | CC(C)(C)OCCN[C@H]1CC[C@H](Nc2cc(-c3cccc(NCC4(C#N)CCOCC4)n3)c(Cl)cn2)CC1 [Compound 515]
0.826 nM | CO[C@H]1CCN([C@H]2CC[C@H](Nc3cc(-c4cccc(NCC5(C#N)CCOCC5)n4)c(Cl)cn3)CC2)C1 [Compound 514]

same assay, conditions: neutral species; individual determinations; read-out: CDK9_cyclinT1_AS2_IC50

IC50 | SMILES
9.54 nM | N#CC1(CNc2cccc(-c3cc(N[C@H]4CC[C@@H](NC5CC(F)(F)C5)CC4)ncc3Cl)n2)CCOCC1 [Compound 564]
< 1 nM | [2H]C([2H])([2H])OC[C@@H](C)N[C@H]1CC[C@H](Nc2cc(-c3cncc(OCC4(C#N)CCOCC4)n3)c(Cl)cn2)CC1 [Compound 599]
2.11 nM | N#CC1(CNc2cccc(-c3cc(N[C@H]4CC[C@H](CN5CCOCC5)CC4)ncc3Cl)n2)CCOCC1 [Compound 536]
1.12 nM | COC[C@@H](C)N[C@H]1CC[C@H](Nc2cc(-c3cncc(OCC4(C#N)CCOCC4)n3)c(Cl)cn2)CC1 [Compound 552]
0.378 nM | COC[C@@H](C)N[C@H]1CC[C@H](Nc2cc(-c3cncc(OCC4(C#N)CC4)n3)c(F)cn2)CC1 [Compound 557]
1.01 nM | N#CC1(COc2cncc(-c3cc(N[C@H]4CC[C@H](N5CCCOCC5)CC4)ncc3Cl)n2)CCOCC1 [Compound 548]
0.537 nM and 0.466 nM | CC(O)(CN[C@H]1CC[C@H](Nc2cc(-c3cccc(NCC4(C#N)CCOCC4)n3)c(Cl)cn2)CC1)C(F)(F)F (stereo partly drawn) [Compound 539]
6.44 nM | N#CC1(CNc2cccc(-c3cc(N[C@H]4CC[C@@H](NCC5(O)CC5)CC4)ncc3Cl)n2)CCOCC1 [Compound 573]
< 1 nM | [2H]C(C)(COC)N[C@H]1CC[C@H](Nc2cc(-c3cccc(NCC4(C#N)CCOCC4)n3)c(Cl)cn2)CC1 (stereo partly drawn) [Compound 594]
1 nM | C[C@@](O)(CN[C@H]1CC[C@H](Nc2cc(-c3cncc(OCC4(C#N)CCOCC4)n3)c(Cl)cn2)CC1)C(F)(F)F [Compound 582]
0.475 nM | CC(C)(O)CN[C@H]1CC[C@H](Nc2cc(-c3cccc(NCC4(C#N)CCOCC4)n3)c(Cl)cn2)CC1 [Compound 521]
2.13 nM | COCCN(C1CC1)[C@H]1CC[C@H](Nc2cc(-c3cncc(OCC4(C#N)CCOCC4)n3)c(F)cn2)CC1 [Compound 555]
0.596 nM and 0.536 nM | COCCNC[C@H]1CC[C@H](Nc2cc(-c3cccc(NCC4(C#N)CCOCC4)n3)c(Cl)cn2)CC1 [Compound 540]
0.281 nM | COC(C)(C)CN[C@H]1CC[C@H](Nc2cc(-c3cccc(NCC4(C#N)CCOCC4)n3)c(Cl)cn2)CC1 [Compound 529]
1 nM | COC[C@H](C)N[C@H]1CC[C@H](Nc2cc(-c3cccc(NCC4(C#N)CC4)n3)c(F)cn2)CC1 [Compound 587]
8.61 nM | CO[C@H]1CCN([C@H]2CC[C@@H](Nc3cc(-c4cccc(NCC5(C#N)CCOCC5)n4)c(F)cn3)CC2)C1 [Compound 517]
0.217 nM | CC(C)(C)OCCN[C@H]1CC[C@H](Nc2cc(-c3cccc(NCC4(C#N)CCOCC4)n3)c(Cl)cn2)CC1 [Compound 515]
0.553 nM | CO[C@H]1CCN([C@H]2CC[C@H](Nc3cc(-c4cccc(NCC5(C#N)CCOCC5)n4)c(Cl)cn3)CC2)C1 [Compound 514]
